According to patent publication US11564923B2, “Compounds and pharmaceutical compositions thereof for the treatment of inflammatory disorders” (Galapagos NV, priority 2017, dated 2023):

Tests used:
[1] = target: T1, Recombinant human JAK2 (catalytic domain, amino acids 808-1132) (Homo sapiens, UniProt O60674); test: JAK2 inhibition assay; format: biochemical; settings: read-out: JAK2 potency IC50; note: 0.7 µM ATP
T1 construct: catalytic domain, amino acids 808-1132

[2] = test system: IL-12 activation of STAT4 in NK-92 cells; test: IL-12 activation of STAT4 in NK-92 cells using AphaLISA SureFire technology; format: cell-based; settings: Homo sapiens, NK92; IL-12 activation of STAT4 in NK-92 cells, AlphaLISA SureFire; average IC50; read-out: IL12 pSTAT4 IC50
Procedure, shortened: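 NK-92 cells, starved of rhIL-2 overnight, were stimulated with rhIL-12 for 30 min at 37 °C with test compounds, then lysed. Phospho-STAT4 (Tyr693) was read by AlphaLISA SureFire. Percent inhibition versus the vehicle-plus-trigger signal was fitted by sigmoidal nonlinear regression to give IC50, averaged over experiments.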

[3] = target: T2, Recombinant human JAK1 (catalytic domain, amino acids 866-1154) (Homo sapiens, UniProt P23458); test: JAK1 inhibition assay; format: biochemical; settings: read-out: JAK1 potency IC50
T2 construct: catalytic domain, amino acids 866-1154

[4] = test system: IFNα activation of STAT1 in PBMC; test: IFNα activation of STAT1 in PBMC; format: cell-based; settings: Homo sapiens; IFNα activation of STAT1 in PBMC; average IC50; read-out: IFNα signaling inhibitory potency IC50
Procedure, shortened: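 Human PBMC, with red cells lysed by NH4Cl, were pre-treated with compound for 30 min at 37 °C and 5% CO2. They were then stimulated for 30 min with recombinant human IFNα at 5 ng/mL final.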

[5] = test system: IL-12 activation of STAT4 in NK-92 cells; test: IL-12 activation of STAT4 in NK-92 cells using MSD as readout; format: cell-based; settings: Homo sapiens, NK92; NK-92 cells, rhIL-12 25 ng/mL, MSD readout; read-out: IL12 pSTAT4 IC50
Procedure: IL-2 is added freshly to the medium with each medium refreshment step. Cells are cultured in a humidified incubator at 37° C. 5% CO2.
NK-92 cells are pre-incubated with test compounds or vehicle for 30 min at 37° C. 5% CO2. […] NK-92 cells are triggered with rhIL-12 for 45 min at 37° C. 5% CO2.
After 45 min of cytokine stimulation the cells are lysed by addition of 50 μL ice-cold lysis buffer (supplemented with the MSD kit). Plates are frozen at −80° C. for minimal 1 hour to lyse the cells completely. After thawing the levels of phospho-STAT4 are quantified using the Phospho-STAT4 (Tyr693) kit (MSD, Catalogue number K150PAD-2) according to the manufacturer's instructions. Electroluminescent signal is measured on the MSD reader.
The percentage inhibition is calculated as: […]
RLU (trigger/veh): Relative lumescent signal determined in presence of vehicle and trigger
RLU (test compound): Relative luminescent signal determined in presence of test compounds)
PIN values are plotted for compounds tested in dose-response and IC50 values are derived using LIMS Software applying non-linear regression (sigmoidal) curve fitting. The data are expressed as the average IC50 from different experiments.

T2 sequence (P23458 866-1154): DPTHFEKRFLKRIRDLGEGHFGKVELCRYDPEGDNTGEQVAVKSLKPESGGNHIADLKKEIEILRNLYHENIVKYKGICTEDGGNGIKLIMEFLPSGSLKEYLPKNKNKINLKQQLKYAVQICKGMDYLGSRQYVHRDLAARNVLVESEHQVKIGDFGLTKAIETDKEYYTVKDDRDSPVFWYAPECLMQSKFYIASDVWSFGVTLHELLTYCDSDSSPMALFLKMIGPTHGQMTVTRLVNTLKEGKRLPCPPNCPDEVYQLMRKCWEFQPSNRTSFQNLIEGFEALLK
T1 sequence (O60674 808-1132): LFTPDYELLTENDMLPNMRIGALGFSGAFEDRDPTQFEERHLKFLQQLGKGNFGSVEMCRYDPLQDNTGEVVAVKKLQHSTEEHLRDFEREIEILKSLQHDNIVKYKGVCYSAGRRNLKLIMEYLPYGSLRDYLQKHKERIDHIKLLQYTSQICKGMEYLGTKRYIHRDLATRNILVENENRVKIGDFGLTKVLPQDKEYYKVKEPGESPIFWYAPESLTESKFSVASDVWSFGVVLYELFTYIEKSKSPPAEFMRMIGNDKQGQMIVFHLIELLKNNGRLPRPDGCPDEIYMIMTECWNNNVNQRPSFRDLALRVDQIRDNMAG

Cc1cc(C(F)(F)F)ncc1Oc1cc(Nc2cc(N)ncn2)c2ncn(C)c2n1 [Compound 1, N-[3-Methyl-5-(4-methyl-6-trifluoromethyl-pyridin-3-yloxy)-3H-imidazo[4,5-b]pyridin-7-yl]-pyrimidine-4,6-diamine]
IC50 [1]: 67.3 nM | IC50 [2]: 111 nM | IC50 [3]: 153 nM | IC50 [4]: 85.5 nM | IC50 [5]: 539 nM

Cc1cc(C#N)ncc1Nc1cc(Nc2ccc(C(=O)N(C)C)cn2)c2ncn(C)c2n1 [Compound 67, 6-[[5-[(6-cyano-4-methyl-3-pyridyl)amino]-3-methyl-imidazo[4,5-b]pyridin-7-yl]amino]-N,N-dimethyl-pyridine-3-carboxamide]
IC50 [1]: 28.2 nM | IC50 [2]: 54.1 nM | IC50 [3]: 51.4 nM | IC50 [4]: 51 nM | IC50 [5]: 233 nM

Cc1cc(C#N)ncc1Oc1cc(Nc2ccc(S(=O)(=O)C(F)F)cc2)c2ncn(C)c2n1 [Compound 68, 5-[7-[4-(difluoromethylsulfonyl)anilino]-3-methyl-imidazo[4,5-b]pyridin-5-yl]oxy-4-methyl-pyridine-2-carbonitrile]
IC50 [1]: 175 nM | IC50 [2]: 122 nM | IC50 [3]: 113 nM | IC50 [4]: 128 nM | IC50 [5]: 1440 nM

Cc1cc(C#N)ncc1Oc1cc(Nc2ccc(S(=O)(=O)C3CC3)cc2)c2ncn(C)c2n1 [Compound 69, 5-[7-(4-cyclopropylsulfonylanilino)-3-methyl-imidazo[4,5-b]pyridin-5-yl]oxy-4-methyl-pyridine-2-carbonitrile]
IC50 [1]: 70 nM | IC50 [2]: 42.8 nM | IC50 [3]: 61.3 nM | IC50 [4]: 90 nM | IC50 [5]: 204 nM

Cc1cc(C#N)ncc1N(c1cc(Nc2cc(N)ncn2)c2ncn(C)c2n1)C1CC1 [Compound 88, 5-[[7-[(6-aminopyrimidin-4-yl)amino]-3-methyl-imidazo[4,5-b]pyridin-5-yl]-cyclopropyl-amino]-4-methyl-pyridine-2-carbonitrile]
IC50 [1]: 1.42 nM | IC50 [2]: 22 nM | IC50 [3]: 5.3 nM | IC50 [4]: 14 nM | IC50 [5]: 90.1 nM

Cn1cnc2c(Nc3ccc(S(C)(=O)=O)cn3)cc(NC(C3CC3)C(F)(F)F)nc21 (stereo not shown) [Compound 92, N5-(1-cyclopropyl-2,2,2-trifluoro-ethyl)-3-methyl-N7-(5-methylsulfonyl-2-pyridyl)imidazo[4,5-b]pyridine-5,7-diamine]
IC50 [1]: 1.17 nM | IC50 [3]: 9.6 nM | IC50 [4]: 67 nM | IC50 [5]: 282 nM

CC(C)C(Nc1cc(Nc2cc(N)ncn2)c2ncn(C)c2n1)C(F)(F)F (stereo not shown) [Compound 93, N7-(6-aminopyrimidin-4-yl)-3-methyl-N5-[2-methyl-1-(trifluoromethyl)propyl)imidazo[4,5-b]pyridine-5,7-diamine]
IC50 [1]: 16.4 nM | IC50 [2]: 25.4 nM | IC50 [3]: 57.1 nM | IC50 [4]: 65 nM | IC50 [5]: 201 nM
